Data as given in PubChem BioAssay AID2060488 (Molecular Pharmacology Branch, DTP, NCI, 2025).
Each block holds one molecule with its values, some of them ahead of it.

Tested on: 966289-007-R4-J1-PDC complex spheroid viability
Experiment: Anticancer human tumor 966289-007-R4-J1-PDC patient-derived pancreatic adenocarcinoma cell line growth inhibition [GQUAD]
Settings: for IC50: curve of first compound; for viability, T/C: stronger effect = lower value
Method in brief: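 Tumor cells were grown as complex spheroids with HUVEC endothelial cells and mesenchymal stem cells as stroma. G-quadruplex stabilizers were combined with targeted agents over half-log dilutions from near the clinical Cmax, or from 10 microM.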

[1] = second compound 0.0316 µM, first compound 0.000999 µM
[2] = second compound 0.0316 µM, first compound 0.00316 µM
[3] = second compound 0.0316 µM, first compound 0.00999 µM
[4] = second compound 0.0316 µM, first compound 0.0316 µM
[5] = second compound 0.0316 µM, first compound 0.0999 µM
[6] = second compound 0.0316 µM, first compound 0.316 µM
[7] = second compound 0.1 µM, first compound 0.000999 µM
[8] = second compound 0.1 µM, first compound 0.00316 µM
[9] = second compound 0.1 µM, first compound 0.00999 µM
[10] = second compound 0.1 µM, first compound 0.0316 µM
[11] = second compound 0.1 µM, first compound 0.0999 µM
[12] = second compound 0.1 µM, first compound 0.316 µM
[13] = second compound 0.316 µM, first compound 0.000999 µM
[14] = second compound 0.316 µM, first compound 0.00316 µM
[15] = second compound 0.316 µM, first compound 0.00999 µM
[16] = second compound 0.316 µM, first compound 0.0316 µM
[17] = second compound 0.316 µM, first compound 0.0999 µM
[18] = second compound 0.316 µM, first compound 0.316 µM
[19] = second compound 1 µM, first compound 0.000999 µM
[20] = second compound 1 µM, first compound 0.00316 µM
[21] = second compound 1 µM, first compound 0.00999 µM
[22] = second compound 1 µM, first compound 0.0316 µM
[23] = second compound 1 µM, first compound 0.0999 µM
[24] = second compound 1 µM, first compound 0.316 µM
[25] = second compound 3.16 µM, first compound 0.000999 µM
[26] = second compound 3.16 µM, first compound 0.00316 µM
[27] = second compound 3.16 µM, first compound 0.00999 µM
[28] = second compound 3.16 µM, first compound 0.0316 µM
[29] = second compound 3.16 µM, first compound 0.0999 µM
[30] = second compound 3.16 µM, first compound 0.316 µM
[31] = second compound 10 µM, first compound 0.000999 µM
[32] = second compound 10 µM, first compound 0.00316 µM
[33] = second compound 10 µM, first compound 0.00999 µM
[34] = second compound 10 µM, first compound 0.0316 µM
[35] = second compound 10 µM, first compound 0.0999 µM
[36] = second compound 10 µM, first compound 0.316 µM
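Also: spheroids exposed to the agents for seven days before readout.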
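For viability, T/C in this document: percent viability relative to DMSO vehicle control wells taken as 100%.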

Compound: CCc1c2c(nc3ccc(O)cc13)-c1cc3c(c(=O)n1C2)COC(=O)[C@]3(O)CC + CN(C)c1ccc(Nc2c3ccc(NC(=O)CCN4CCCC4)cc3nc3cc(NC(=O)CCN4CCCC4)ccc23)cc1
- IC50 (second compound 0.0316 µM): < 0.999 nM
- IC50 (second compound 0.1 µM): < 0.999 nM
- IC50 (second compound 0.316 µM): < 0.999 nM
- IC50 (second compound 1 µM): < 0.999 nM
- IC50 (second compound 3.16 µM): < 0.999 nM
- IC50 (second compound 10 µM): < 0.999 nM
- viability, T/C [1]: 21.2%
- viability, T/C [2]: 1.29%
- viability, T/C [3]: 0.59%
- viability, T/C [4]: 0.58%
- viability, T/C [5]: 0.44%
- viability, T/C [6]: 0.43%
- viability, T/C [7]: 22.3%
- viability, T/C [8]: 1.11%
- viability, T/C [9]: 0.72%
- viability, T/C [10]: 1.03%
- viability, T/C [11]: 0.43%
- viability, T/C [12]: 0.56%
- viability, T/C [13]: 18.6%
- viability, T/C [14]: 1.04%
- viability, T/C [15]: 1.15%
- viability, T/C [16]: 0.5%
- viability, T/C [17]: 0.36%
- viability, T/C [18]: 0.44%
- viability, T/C [19]: 22.2%
- viability, T/C [20]: 1.12%
- viability, T/C [21]: 0.68%
- viability, T/C [22]: 0.53%
- viability, T/C [23]: 1.55%
- viability, T/C [24]: 0.4%
- viability, T/C [25]: 17.7%
- viability, T/C [26]: 1.42%
- viability, T/C [27]: 0.73%
- viability, T/C [28]: 0.58%
- viability, T/C [29]: 0.38%
- viability, T/C [30]: 0.97%
- viability, T/C [31]: 9.4%
- viability, T/C [32]: 0.87%
- viability, T/C [33]: 0.74%
- viability, T/C [34]: 0.39%
- viability, T/C [35]: 0.62%
- viability, T/C [36]: 0.22%

- IC50 (second compound 0.0316 µM): 2700 nM
- IC50 (second compound 0.1 µM): < 31.6 nM
- IC50 (second compound 0.316 µM): < 31.6 nM
- IC50 (second compound 1 µM): < 31.6 nM
- IC50 (second compound 3.16 µM): < 31.6 nM
- IC50 (second compound 10 µM): < 31.6 nM
Compound: CC1COCCN1c1cc(C2(S(C)(=N)=O)CC2)nc(-c2ccnc3[nH]ccc23)n1 (stereo unspecified) + Cc1cnc(CNC(=O)c2c(=O)c3ccc(N4CCCN(C)CC4)nc3n3c2sc2ccccc23)cn1
- viability, T/C [4]: 119%
- viability, T/C (second compound 0.0316 µM, first compound 0.1 µM): 108%
- viability, T/C [6]: 107%
- viability, T/C (second compound 0.0316 µM, first compound 1 µM): 44.5%
- viability, T/C (second compound 0.0316 µM, first compound 3.16 µM): 68.7%
- viability, T/C (second compound 0.0316 µM, first compound 10 µM): 3.76%
- viability, T/C [10]: 42.7%
- viability, T/C (second compound 0.1 µM, first compound 0.1 µM): 34.2%
- viability, T/C [12]: 20.3%
- viability, T/C (second compound 0.1 µM, first compound 1 µM): 11.8%
- viability, T/C (second compound 0.1 µM, first compound 3.16 µM): 15.3%
- viability, T/C (second compound 0.1 µM, first compound 10 µM): 4.26%
- viability, T/C [16]: 16.7%
- viability, T/C (second compound 0.316 µM, first compound 0.1 µM): 13.1%
- viability, T/C [18]: 12.2%
- viability, T/C (second compound 0.316 µM, first compound 1 µM): 8.4%
- viability, T/C (second compound 0.316 µM, first compound 3.16 µM): 11.7%
- viability, T/C (second compound 0.316 µM, first compound 10 µM): 3.59%
- viability, T/C [22]: 7.28%
- viability, T/C (second compound 1 µM, first compound 0.1 µM): 8.94%
- viability, T/C [24]: 8.19%
- viability, T/C (second compound 1 µM, first compound 1 µM): 6.87%
- viability, T/C (second compound 1 µM, first compound 3.16 µM): 8.21%
- viability, T/C (second compound 1 µM, first compound 10 µM): 2.84%
- viability, T/C [28]: 5.74%
- viability, T/C (second compound 3.16 µM, first compound 0.1 µM): 6.34%
- viability, T/C [30]: 6.62%
- viability, T/C (second compound 3.16 µM, first compound 1 µM): 5.33%
- viability, T/C (second compound 3.16 µM, first compound 3.16 µM): 6.14%
- viability, T/C (second compound 3.16 µM, first compound 10 µM): 2.86%
- viability, T/C [34]: 0.15%
- viability, T/C (second compound 10 µM, first compound 0.1 µM): 0.14%
- viability, T/C [36]: 0.19%
- viability, T/C (second compound 10 µM, first compound 1 µM): 0.18%
- viability, T/C (second compound 10 µM, first compound 3.16 µM): 0.19%
- viability, T/C (second compound 10 µM, first compound 10 µM): 0.16%

Compound: CC[C@@]1(O)C(=O)OCc2c1cc1n(c2=O)Cc2cc3c(CN(C)C)c(O)ccc3nc2-1 + CN(C)c1ccc(Nc2c3ccc(NC(=O)CCN4CCCC4)cc3nc3cc(NC(=O)CCN4CCCC4)ccc23)cc1
- IC50 (second compound 0.0316 µM): 49.8 nM
- IC50 (second compound 0.1 µM): 50.3 nM
- IC50 (second compound 0.316 µM): 48.5 nM
- IC50 (second compound 1 µM): 53.3 nM
- IC50 (second compound 3.16 µM): 50.7 nM
- IC50 (second compound 10 µM): 24.8 nM
- viability, T/C [1]: 100%
- viability, T/C [2]: 96.9%
- viability, T/C [3]: 92.9%
- viability, T/C [4]: 82.1%
- viability, T/C [5]: 0.84%
- viability, T/C [6]: 0.56%
- viability, T/C [7]: 102%
- viability, T/C [8]: 98%
- viability, T/C [9]: 103%
- viability, T/C [10]: 83.5%
- viability, T/C [11]: 0.82%
- viability, T/C [12]: 0.54%
- viability, T/C [13]: 101%
- viability, T/C [14]: 96.1%
- viability, T/C [15]: 107%
- viability, T/C [16]: 79%
- viability, T/C [17]: 0.87%
- viability, T/C [18]: 0.83%
- viability, T/C [19]: 92.1%
- viability, T/C [20]: 96.5%
- viability, T/C [21]: 102%
- viability, T/C [22]: 91%
- viability, T/C [23]: 0.86%
- viability, T/C [24]: 0.61%
- viability, T/C [25]: 96.1%
- viability, T/C [26]: 98.2%
- viability, T/C [27]: 110%
- viability, T/C [28]: 84.3%
- viability, T/C [29]: 1.25%
- viability, T/C [30]: 0.55%
- viability, T/C [31]: 104%
- viability, T/C [32]: 89.2%
- viability, T/C [33]: 110%
- viability, T/C [34]: 36.2%
- viability, T/C [35]: 0.73%
- viability, T/C [36]: 0.68%
